Data published in patent US8389468B2, “Approach to the treatment of compartment syndrome” (Lantmannen AS-Faktor AB, priority 2006, dated 2013).
Entries after “also recorded” stand apart in the source; their conditions may differ.

Legend:
Format in all cases: in vivo, rat
[1] = tested on: HSV-1 infected rats; experiment: Outflow of CSF through cribriform lamina, Evans blue-albumin (EBA) infusion in HSV-1 infected rats; details: 10 or 25 pg intranasally
Description: FIG. 6: Sections through the cribriform lamina, a bone structure separating the brain from the nose and through which the olfactory nerve pass. In the left figure (a) the dye-protein complex Evans blue-albumin (EBA) was infused into the subarachnoid space at day 5 after HSV-1 infection. The animal suffered from moderate encephalitis. Note that there is no red EBA in the cribriform lamina, nor in the nose, as the passage between the brain and nasal cavity is blocked. In the right figure (b) EBA was infused into the subarachnoid space of a non-infected, normal rat.
Additional HSV-1 infected animals with distinctly overt symptoms were as well treated with 10 or 25 pg AF-16 intranasally, starting on day 5, 6 or 7, i.e. after having had the vehicle during the previous days. […] Thus, non of the acutely AF-16 treated rats had any persistent signs of deleterious ICP and thus no CS developed. […] That is seen in the mentioned figure (FIG. 5 a) as there is no red staining of the right half on the figure. However, treatment with 10 or 25 pg AF-16 intranasally turned the picture in HSV-1 infected rats as in the normal, non-infected ones. […] Thereby the outflow of CSF was restored and the ICP turned normal.

[2] = tested on: flotillin-1 and aquaporin 1 immunoreactivities in the choroid plexus; experiment: Immunohistochemistry of flotillin-1 and aquaporin 1 in choroid plexus of HSV-1 infected rats; details: hardly demonstrable with vehicle
Procedure: Therefore, rats were infected by instillation in their right nostril of 25 μL of a solution of the herpes simplex virus type 1 (HSV-1; strain 2762, batch 041028; 1.7×10^7 PFU/mL). Half of the animals received 10 min later 25 μL (1, 10 or 25 pg) of AF-16 in their right nostril, and had thereafter the same dose of AF-16 instilled every morning at 8 AM and every night at 6 PM until the experiment was terminated on day 14. The other half of the group of HSV-1 infected rats received 25 μL of the vehicle, PBS, at the same time schedule. The animals were several times daily closely watched for signs of behavioral dysfunction or general sickness. If so, the animals were sacrificed. The FIG. 3 is illustrating the survival rates for the animals, all being infected with HSV-1. […] In contrast, the HSV-1 infected rats, receiving just the vehicle (n=15), died to a large extent and only 10% were still surviving at the end of the test period, day 14 (FIG. 3). All of the vehicle treated, infected rats developed signs of neurological dysfunctions. […] It ought to be stressed that the extent and severity of the damage were depending on the duration of the exposure and to the level of elevated ICP as well as to the survival time. […]

[3] = tested on: HSV-1; experiment: PCR of HSV-1 DNA copies in brain tissue, rats; details: 1 or 10 pg intranasally twice daily
Description: FIG. 5: Quantitative PCR performed on brain tissues from rats infected in their right nostril with HSV-1. The brain specimens were obtained between 5 to 14 days after virus inoculation in the right nostril.
The improved survival of the HSV-1 infected rodents, as illustrated in example #2, could tentatively be due to that AF-16 blocked or at least reduced the proliferation of HSV1 virus in the infected brain. Therefore, adult rats were infected by having a solution of the herpes simplex virus type 1 (HSV-1; strain 2762, batch 041028; 1.7×10^7 PFU/mL) instilled in their right nostril. Half of the infected animals received 10 min later 25 pL (1 or 10 pg) of AF-16 in their right nostril, and had thereafter the same dose of AF-16 instilled every morning at 8 AM and every night at 6 PM until the experiment was terminated on day 6. The other groups of the HSV-1 infected rats received at the same time intervals 25 μL of the vehicle, PBS. The animals were closely watched for signs of general sickness and of behavioral and motor dysfunction. The animals were sacrificed by an overdose of anesthetics on day 6, the skull was then rapidly opened and the brain removed. […]

[4] = tested on: Staphylococcus areus (SA; strain LS1) infected joints; experiment: Arthritis by arthritogenic Staphylococcus areus (strain LS1), joint pressure
Description: Joints are enclosed by tender, noncompliant collagen capsules, further characterised by low elasticity but plasticity. At arthritis, the pressure in the synovial fluid in the joint cavity turns elevated, and inflammation adds to the symptoms. A CS is prevalent. In order to investigate if treatment with AF-16 could prevent or at least reduce the development of such a CS, adult rats were infected by systemic injection of a solution of an arthritogenic Staphylococcus areus (SA; strain LS1). One group of animals (n=3) were treated with AF-16 while a second group of rats (n=3) just received the vehicle, PBS. After a few days the knee joints and later on additional limb and foot joints turned tender, swollen and got elevated pressure in the joint cavities, as measured with the Samba Fibre Optic Pressure probe (Samba System 3200 & Samba Preclin 420 sensor; Samba Sensors AB, Gruvgatan 6, SE 42130 V. Frolunda, Sweden), as well as in the immediately surrounding tissue. The pressure in a normal synovial large joint is 0-5 mm Hg, but could increase more than five-fold in infected, inflamed joints. The interstitial fluid pressure in the subcutaneous tissue at a distance from the infected joint was measured for comparison and found to remain within normal limits, ±2 mm Hg. […] Infected animals, which only received treatment with the vehicle, PBS, developed CS of with time increasing severity.

[5] = tested on: liver, spleen, kidney and thyroid; experiment: Mechanical injury of liver, spleen, kidney and thyroid; details: compression and abrasion, vs vehicle
Description: The liver, spleen, kidney and thyroid were similarly mechanically injured by compression and exposed to abrasion. […] Further the prevalence of ascites and related types of excessive extracellular fluid at elevated pressure was reduced. Thus AF-16 reduced the extent and severity of the CS in parenchymatous organs and tissues.

VCHSKTRSNPENNVGL [AF-16]
outflow of CSF to nasal mucosa (EBA staining of cribriform lamina) [1]: opened the passage for the CSF through the cribriform plate; also recorded: reversed the block of the outflow of CSF | aquaporin 1 immunoreactivity in the choroid plexus [2]: readily demonstrable | flotillin-1 immunoreactivity in the choroid plexus [2]: readily demonstrable | HSV-1 DNA copies in brain tissue vs vehicle [3]: no significant difference with regard to prevalence and distribution of HSV-1 DNA copies; also recorded: does not significantly affect the HSV-1 production | joint tenderness, swelling, pain ([4]; SA infected large joint): did not have that tender, swollen and painful joints | pressure in the infected joint ([4]; SA infected large joint, n=3, normal joint 0-5 mm Hg): close to normal pressure in the joint | number of S. areus in synovial fluid, treated vs not ([4]; larger joints): about the same | oedema and swelling of injured organs [5]: reduce the oedema and swelling
